Source: US8637038B2, “Methods for inhibiting allograft rejection” (Rigel Pharmaceuticals, Inc., priority 2011, dated 2014)
Like-named read-outs stand apart in the source and are kept apart here.

Key:
Assay type in all cases: cell-based
JAK1/Tyk2 = assay: IFN-γ T cell phospho-STAT1; settings: Homo sapiens
Experimental: (§1) The activity of Compound III and Compound I was assessed in a panel of cell-based assays. Compound III and Compound I are selective inhibitors of JAK1/3-dependent signaling. Data for a non-selective JAK inhibitor (Compound IV) is shown for reference. Mixed lymphocyte reactions (MLRs) were performed by incubating freshly prepared naive human peripheral blood lymphocytes from one donor with CD80+/CD86+ mature Dendritic Cells derived from a different donor for 5 days. The percentage of CD3+/CD71+ (anti-CD3-APC, Clone HIT3a, anti-CD 71-FITC, Clone M-A712; BD Biosciences, San Jose, Calif.) proliferating cells was assessed by fluorescence-activated cell sorting (FACS; BD Bioscience). Interleukin-2 (IL-2)-dependent human primary T cell proliferation was assessed using CellTiter-Glo® Luminescent Cell Viability Assay (Promega, Madison, Wis.). STAT phosphorylation induced by different cytokines in human primary T cells was measured by intracellular FACS analysis (anti-pY694-STAT5 AlexaFluor488, anti-pY701-STAT1 AlexaFluor488, and anti-pY693-STAT4 AlexaFluor488; BD Biosciences). […] Interferon-γ (IFN-γ) signaling was assessed in the U937 monocytic cell line by measuring ICAM-1 surface expression by FACS (ICAM-1-APC, BD Bioscience).

JAK1/2 = assay: IFN-γ U937 ICAM-1 surface expression; settings: for EC50: Homo sapiens
Experimental: The activity of Compound III and Compound I was assessed in a panel of cell-based assays. Compound III and Compound I are selective inhibitors of JAK1/3-dependent signaling. Data for a non-selective JAK inhibitor (Compound IV) is shown for reference. Mixed lymphocyte reactions (MLRs) were performed by incubating freshly prepared naive human peripheral blood lymphocytes from one donor with CD80+/CD86+ mature Dendritic Cells derived from a different donor for 5 days. The percentage of CD3+/CD71+ (anti-CD3-APC, Clone HIT3a, anti-CD 71-FITC, Clone M-A712; BD Biosciences, San Jose, Calif.) proliferating cells was assessed by fluorescence-activated cell sorting (FACS; BD Bioscience). Interleukin-2 (IL-2)-dependent human primary T cell proliferation was assessed using CellTiter-Glo® Luminescent Cell Viability Assay (Promega, Madison, Wis.). STAT phosphorylation induced by different cytokines in human primary T cells was measured by intracellular FACS analysis (anti-pY694-STAT5 AlexaFluor488, anti-pY701-STAT1 AlexaFluor488, and anti-pY693-STAT4 AlexaFluor488; BD Biosciences). STAT phosphorylation induced by different cytokines was performed in whole blood after red blood cell lysis (Lyse/Fix buffer, BD Biosciences) and methanol permeabilization. Interferon-γ (IFN-γ) signaling was assessed in the U937 monocytic cell line by measuring ICAM-1 surface expression by FACS (ICAM-1-APC, BD Bioscience).

Syk = assay: IgE CHMC tryptase release; settings: Homo sapiens, read-out: IgE CHMC tryptase EC50
Experimental: (§2) The erythropoietin (EPO)-dependent survival of cultured human erythroid progenitor cells (CHEPs) was determined using CellTiter-Glo® Luminescent Cell Viability Assay (Promega). Human primary T cell activation was assessed by measuring IL-2 production by ELISA (R&D Systems, Minneapolis, Minn., USA) following plate-bound anti-CD3 and anti-CD28 stimulation (Anti-Human CD3; BD Biosciences; Anti-Human CD28; Immunotech; Prague, Czech Republic). The enzymatic activity of tryptase released by human cultured mast cells (CHMCs) upon stimulation with IgE was quantified by cleavage of the synthetic fluorescent peptide substrate Z-Ala-Lys-Arg-7-amino-4-methylcoumarin (MP Biomedicals, Solon, Ohio, USA) in tryptase buffer. B-cell receptor-dependent Erk phosphorylation was measured in Ramos cells by intracellular FACS (anti-pT202/pY204-ERK1/2-AlexaFluor488; BD Biosciences). Cell proliferation assays were performed using A549 epithelial cells and H1299 lung carcinoma cells using nuclear staining to measure cell numbers (4′6-diamidino-2-phenylindole, dihydrochloride (DAPI; Invitrogen, Darmstadt, Germany)).

A549 epithelial cells = assay: A549 proliferation; settings: Homo sapiens
Experimental: as §2

VEGFR2 = molecular target: T1, VEGFR2 (Homo sapiens, UniProt P35968); assay: VEGF HUVEC phospho-VEGFR2
T1 construct: endogenous in cells; host or cells: HUVEC (human umbilical vein endothelial cells)
T1 sequence (P35968 20-1356): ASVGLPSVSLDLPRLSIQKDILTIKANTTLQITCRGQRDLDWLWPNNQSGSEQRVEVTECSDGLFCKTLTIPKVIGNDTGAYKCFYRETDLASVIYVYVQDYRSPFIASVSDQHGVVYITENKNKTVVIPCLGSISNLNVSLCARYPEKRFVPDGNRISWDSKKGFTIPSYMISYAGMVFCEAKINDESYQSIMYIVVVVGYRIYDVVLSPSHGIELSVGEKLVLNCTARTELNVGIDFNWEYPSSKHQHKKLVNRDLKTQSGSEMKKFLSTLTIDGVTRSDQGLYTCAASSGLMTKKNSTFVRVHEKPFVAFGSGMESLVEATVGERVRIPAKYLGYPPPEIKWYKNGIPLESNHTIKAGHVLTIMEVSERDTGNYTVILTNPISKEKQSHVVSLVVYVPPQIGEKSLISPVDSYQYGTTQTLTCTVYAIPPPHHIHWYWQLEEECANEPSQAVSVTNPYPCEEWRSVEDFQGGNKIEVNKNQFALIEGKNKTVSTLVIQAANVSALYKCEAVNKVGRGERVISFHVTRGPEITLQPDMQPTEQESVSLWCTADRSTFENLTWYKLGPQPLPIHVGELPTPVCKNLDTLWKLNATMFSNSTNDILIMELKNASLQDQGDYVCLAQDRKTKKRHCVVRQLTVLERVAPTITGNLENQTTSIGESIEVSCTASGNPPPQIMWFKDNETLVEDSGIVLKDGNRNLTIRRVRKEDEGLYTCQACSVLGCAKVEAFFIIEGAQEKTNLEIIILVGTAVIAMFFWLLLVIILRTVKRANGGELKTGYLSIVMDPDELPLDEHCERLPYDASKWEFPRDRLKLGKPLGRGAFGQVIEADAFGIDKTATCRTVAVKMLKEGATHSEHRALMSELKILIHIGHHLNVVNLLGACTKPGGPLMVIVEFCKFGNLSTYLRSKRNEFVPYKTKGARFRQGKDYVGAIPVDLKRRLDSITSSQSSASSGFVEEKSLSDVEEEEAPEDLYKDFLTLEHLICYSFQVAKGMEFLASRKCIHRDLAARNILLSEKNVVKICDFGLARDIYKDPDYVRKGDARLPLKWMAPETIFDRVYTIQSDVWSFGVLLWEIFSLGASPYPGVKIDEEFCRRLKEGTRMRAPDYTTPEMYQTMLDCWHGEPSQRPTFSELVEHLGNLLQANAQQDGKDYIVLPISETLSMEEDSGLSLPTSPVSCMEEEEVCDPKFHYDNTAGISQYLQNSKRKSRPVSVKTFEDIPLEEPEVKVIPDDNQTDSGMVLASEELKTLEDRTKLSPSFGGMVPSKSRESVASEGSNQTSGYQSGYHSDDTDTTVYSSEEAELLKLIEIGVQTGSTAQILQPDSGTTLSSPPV
Experimental: Growth factor-dependent protein phosphorylation was detected in HeLa cells by staining permeabilized cells with phospho-specific antibodies and quantified by chemiluminescence (Luminator, Wallac Multilabel Counter; Perkin Elmer). Akt phosphorylation was measured following insulin stimulation and EGFR phosphorylation was measured following EGF stimulation (Phospho-AKT, Cell signaling technology, Danvers, Mass.; 1 μM Insulin, Millipore, Billerica, Mass.; Phospho-EGFR, tyr1173, clone 53A3, Cell Signaling Technology; 200 ng/ml recombinant human EGF, PeproTech, Hamburg, Germany). Human umbilical vein endothelial cells (HUVECs) were stimulated with VEGF and VEGFR2 phosphorylation was assessed by ELISA (100 ng/ml VEGF165, R&D Systems; Rabbit anti-phospho-VEGFR2 mAb, Cell Signaling Technology).

JAK1/3 = assay: IL-2 whole blood lymphocytes phospho-STAT5; settings: Lymphocyte, read-out: IL-2 whole blood lymphocytes phospho-STAT5 EC50
Experimental: as §1

Row | Structure (SMILES) | EC50 (JAK1/Tyk2; upstream kinases JAK1/Tyk2, read-out: IFN-γ T cell phospho-STAT1 EC50) | inhibition of JAK1/2-dependent ICAM-1 expression in U937 cells in response to IFN-γ (JAK1/2) | EC50 (JAK1/2; U-937, upstream kinases JAK1/2, read-out: IFN-γ U937 ICAM-1 EC50) | EC50 (Syk; upstream kinase Syk) | EC50 (A549 epithelial cells; A549, upstream kinases Multiple, read-out: A549 proliferation EC50) | EC50 (VEGFR2) | EC50 (JAK1/3; whole blood, JAK1/3) | EC50 (JAK1/Tyk2; read-out: IFN-γ T cell phospho-STAT1 EC50) | EC50 (JAK1/2; U-937, read-out: IFN-γ U937 ICAM-1 EC50) | EC50 (Syk) | EC50 (A549 epithelial cells; A549, read-out: A549 proliferation EC50) | EC50 (JAK1/3)
1 | COc1cc(Nc2ncc(C)c(Nc3ccc4oc(=O)[nH]c4c3)n2)cc(C)c1F [Compound I, 5-(2-(4-fluoro-3-methoxy-5-methylphenylamino)-5-methylpyrimidin-4-ylamino)benzo[d]oxazol-2(3H)-one] | 9 ± 7 nM | limited inhibition | 417 ± 211 nM | 457 ± 263 nM | 1860 ± 251 nM | 17800 ± 3870 nM | 416 ± 152 nM | – | – | – | – | –
2 | COc1cc(Nc2ncc(C)c(Nc3ccc4oc(=O)[nH]c4c3)n2)cc(C)c1C [Compound III, 5-(2-(3-methoxy-4,5-dimethylphenylamino)-5-methylpyrimidin-4-ylamino)benzol[d]oxazol-2-(3H)-one] | – | limited inhibition | – | – | – | 29300 ± 14300 nM | – | 7 ± 1 nM | 791 ± 352 nM | 380 ± 150 nM | 5420 ± 3040 nM | 887 ± 295 nM
